Measurements published in publication PMC4648050, “Discovery of Inhibitors of Trypanosoma brucei by Phenotypic Screening of a Focused Protein Kinase Library” (Chemmedchem, 2015).

Experiments:
Format in all cases: biochemical, human/mammalian
Conditions in all cases: compound at 10 μM, read-out: % of activity respect of the control
p38s MAPK = target: T1, p38s MAPK (Homo sapiens, UniProt O15264); test: Kinase panel: p38s MAPK
T1 sequence (O15264 1-365): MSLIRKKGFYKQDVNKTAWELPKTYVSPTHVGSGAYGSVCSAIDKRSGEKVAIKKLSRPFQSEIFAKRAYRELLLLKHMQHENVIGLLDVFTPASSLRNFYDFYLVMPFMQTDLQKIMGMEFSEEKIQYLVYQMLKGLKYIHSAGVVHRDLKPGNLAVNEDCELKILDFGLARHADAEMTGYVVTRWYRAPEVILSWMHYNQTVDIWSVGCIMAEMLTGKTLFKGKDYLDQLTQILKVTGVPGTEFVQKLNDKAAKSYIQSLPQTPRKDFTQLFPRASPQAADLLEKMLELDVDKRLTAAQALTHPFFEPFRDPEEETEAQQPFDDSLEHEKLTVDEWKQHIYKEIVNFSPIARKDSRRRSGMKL
Method: (§1) The DDU kinase-focused compound set contains lead-like scaffolds that are designed to target protein kinases; they have kinase hinge binding motifs. Four of the 1H-imidazopyrazinones were screened against a human/mammalian kinase panel at the University of Dundee (http://www.kinase-screen.mrc.ac.uk) at a concentration of 10 μM. At the time of testing the panel contained 79 mammalian kinases selected to provide a broad coverage of the mammalian kinome (∼500 kinases in the human genome).[3] None of the compounds were active against any of the kinases at 10 μM.

p38a MAPK = p38a MAPK (Homo sapiens, UniProt Q16539); test: Kinase panel: p38a MAPK
Method: as §1

RSK1 = RSK1 (Homo sapiens, UniProt Q15418); test: Kinase panel: RSK1
Method: as §1

DYRK1A = DYRK1A (Homo sapiens, UniProt Q13627); test: Kinase panel: DYRK1A
Method: as §1

PKC zeta = target: T2, PKC zeta (Homo sapiens, UniProt Q05513); test: Kinase panel: PKC zeta
T2 sequence (Q05513 1-592): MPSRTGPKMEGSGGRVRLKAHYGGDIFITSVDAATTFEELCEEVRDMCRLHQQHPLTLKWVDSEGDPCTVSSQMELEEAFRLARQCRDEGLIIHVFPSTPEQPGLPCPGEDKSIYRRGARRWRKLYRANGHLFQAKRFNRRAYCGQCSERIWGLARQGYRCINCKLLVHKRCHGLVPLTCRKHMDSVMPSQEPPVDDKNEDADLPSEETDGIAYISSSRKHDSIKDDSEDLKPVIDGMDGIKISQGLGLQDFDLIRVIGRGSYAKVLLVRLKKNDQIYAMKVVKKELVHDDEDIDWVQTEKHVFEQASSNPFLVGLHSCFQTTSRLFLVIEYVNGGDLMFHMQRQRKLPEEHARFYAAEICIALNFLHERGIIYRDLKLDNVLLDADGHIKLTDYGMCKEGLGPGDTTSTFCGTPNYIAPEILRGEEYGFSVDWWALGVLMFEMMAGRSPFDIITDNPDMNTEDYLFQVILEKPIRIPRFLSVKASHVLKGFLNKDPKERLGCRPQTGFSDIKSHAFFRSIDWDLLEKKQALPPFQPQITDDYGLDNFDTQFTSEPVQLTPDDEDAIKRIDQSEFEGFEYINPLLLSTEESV
Method: as §1

ROCK 2 = ROCK 2 (Homo sapiens, UniProt O75116); test: Kinase panel: ROCK 2
Method: as §1

P38b MAPK = P38b MAPK (Homo sapiens, UniProt Q15759); test: Kinase panel: P38b MAPK
Method: as §1

TBK1 (DU12569) = target: T3, TBK1 (DU12569) (Homo sapiens, UniProt Q9UHD2); test: Kinase panel: TBK1 (DU12569)
T3 sequence (Q9UHD2 1-729): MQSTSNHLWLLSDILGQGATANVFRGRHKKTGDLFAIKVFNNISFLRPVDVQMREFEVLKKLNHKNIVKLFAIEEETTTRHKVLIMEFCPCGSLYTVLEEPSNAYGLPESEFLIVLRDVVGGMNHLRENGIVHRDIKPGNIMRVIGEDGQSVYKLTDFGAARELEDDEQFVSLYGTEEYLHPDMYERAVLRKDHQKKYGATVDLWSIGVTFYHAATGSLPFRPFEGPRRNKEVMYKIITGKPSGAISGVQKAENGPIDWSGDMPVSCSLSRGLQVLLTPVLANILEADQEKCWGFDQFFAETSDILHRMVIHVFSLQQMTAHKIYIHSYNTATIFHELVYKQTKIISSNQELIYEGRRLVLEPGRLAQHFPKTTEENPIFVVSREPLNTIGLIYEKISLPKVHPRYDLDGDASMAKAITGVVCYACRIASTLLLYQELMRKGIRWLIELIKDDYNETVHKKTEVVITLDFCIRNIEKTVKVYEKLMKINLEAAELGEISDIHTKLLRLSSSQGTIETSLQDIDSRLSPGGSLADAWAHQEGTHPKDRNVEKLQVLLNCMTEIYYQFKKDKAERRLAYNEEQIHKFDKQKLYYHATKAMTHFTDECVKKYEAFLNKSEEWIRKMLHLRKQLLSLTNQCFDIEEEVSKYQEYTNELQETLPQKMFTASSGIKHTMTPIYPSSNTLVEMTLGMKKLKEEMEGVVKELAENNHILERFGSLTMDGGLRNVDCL
Method: as §1

Lck = Lck (Homo sapiens, UniProt P06239); test: Kinase panel: Lck
Method: as §1

EPH A2 = EPH A2 (Homo sapiens, UniProt P29317); test: Kinase panel: EPH A2
Method: as §1

PRK2 = PRK2 (Homo sapiens, UniProt Q16513); test: Kinase panel: PRK2
Method: as §1

TBK1 = target: T4, TBK1 (Homo sapiens, UniProt Q9UHD2); test: Kinase panel: TBK1
T4 sequence (Q9UHD2 1-729): T3 sequence (Q9UHD2 1-729)
Method: as §1

CSK = CSK (Homo sapiens, UniProt P41240); test: Kinase panel: CSK
Method: as §1

PAK4 = PAK4 (Homo sapiens, UniProt O96013); test: Kinase panel: PAK4
Method: as §1

YES1 = YES1 (Homo sapiens, UniProt P07947); test: Kinase panel: YES1
Method: as §1

SYK = SYK (Homo sapiens, UniProt P43405); test: Kinase panel: SYK
Method: as §1

PAK5 = PAK5 (Homo sapiens, UniProt Q9P286); test: Kinase panel: PAK5
Method: as §1

PAK4, sequence (O96013 whole entry): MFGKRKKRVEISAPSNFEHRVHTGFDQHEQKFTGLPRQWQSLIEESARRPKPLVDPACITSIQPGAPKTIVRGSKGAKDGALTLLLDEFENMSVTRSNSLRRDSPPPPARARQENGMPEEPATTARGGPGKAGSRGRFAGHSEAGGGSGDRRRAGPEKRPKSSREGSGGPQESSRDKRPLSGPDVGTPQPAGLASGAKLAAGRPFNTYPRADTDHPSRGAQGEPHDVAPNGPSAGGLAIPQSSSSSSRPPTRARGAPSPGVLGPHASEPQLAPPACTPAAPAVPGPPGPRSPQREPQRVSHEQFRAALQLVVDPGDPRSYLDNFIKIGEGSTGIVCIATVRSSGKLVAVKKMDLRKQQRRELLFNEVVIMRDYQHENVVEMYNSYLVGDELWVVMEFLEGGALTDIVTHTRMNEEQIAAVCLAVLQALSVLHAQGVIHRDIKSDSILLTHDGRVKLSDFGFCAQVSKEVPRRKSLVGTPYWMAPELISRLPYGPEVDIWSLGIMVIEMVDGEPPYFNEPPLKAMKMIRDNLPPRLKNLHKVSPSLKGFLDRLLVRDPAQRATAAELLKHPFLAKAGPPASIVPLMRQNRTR
CSK, sequence (P41240 whole entry): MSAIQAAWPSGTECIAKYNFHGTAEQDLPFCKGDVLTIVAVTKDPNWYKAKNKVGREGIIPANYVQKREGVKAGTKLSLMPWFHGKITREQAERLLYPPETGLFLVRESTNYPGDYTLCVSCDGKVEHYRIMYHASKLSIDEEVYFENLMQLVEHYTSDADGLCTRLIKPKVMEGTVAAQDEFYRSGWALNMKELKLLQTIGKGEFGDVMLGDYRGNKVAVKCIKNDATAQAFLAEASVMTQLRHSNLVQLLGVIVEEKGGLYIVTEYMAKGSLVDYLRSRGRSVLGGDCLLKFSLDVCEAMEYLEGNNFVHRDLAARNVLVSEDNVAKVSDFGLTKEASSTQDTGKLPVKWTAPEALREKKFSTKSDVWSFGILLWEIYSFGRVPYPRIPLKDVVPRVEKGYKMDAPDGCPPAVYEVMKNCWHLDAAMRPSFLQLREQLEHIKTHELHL
YES1, sequence (P07947 whole entry): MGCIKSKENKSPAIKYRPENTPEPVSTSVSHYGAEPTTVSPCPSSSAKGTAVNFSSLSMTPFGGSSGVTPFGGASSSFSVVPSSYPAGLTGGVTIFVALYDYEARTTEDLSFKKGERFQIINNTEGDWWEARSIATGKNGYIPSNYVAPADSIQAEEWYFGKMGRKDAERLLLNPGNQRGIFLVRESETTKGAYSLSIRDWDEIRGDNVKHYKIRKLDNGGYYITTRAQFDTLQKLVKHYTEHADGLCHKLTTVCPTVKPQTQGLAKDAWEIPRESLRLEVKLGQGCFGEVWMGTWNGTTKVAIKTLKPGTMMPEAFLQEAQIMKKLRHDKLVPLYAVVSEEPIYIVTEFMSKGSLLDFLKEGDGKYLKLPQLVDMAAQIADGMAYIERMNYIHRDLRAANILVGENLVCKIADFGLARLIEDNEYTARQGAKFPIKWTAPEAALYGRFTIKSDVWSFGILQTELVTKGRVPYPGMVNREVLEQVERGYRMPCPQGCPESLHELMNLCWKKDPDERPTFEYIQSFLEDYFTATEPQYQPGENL
p38a MAPK, sequence (Q16539 whole entry): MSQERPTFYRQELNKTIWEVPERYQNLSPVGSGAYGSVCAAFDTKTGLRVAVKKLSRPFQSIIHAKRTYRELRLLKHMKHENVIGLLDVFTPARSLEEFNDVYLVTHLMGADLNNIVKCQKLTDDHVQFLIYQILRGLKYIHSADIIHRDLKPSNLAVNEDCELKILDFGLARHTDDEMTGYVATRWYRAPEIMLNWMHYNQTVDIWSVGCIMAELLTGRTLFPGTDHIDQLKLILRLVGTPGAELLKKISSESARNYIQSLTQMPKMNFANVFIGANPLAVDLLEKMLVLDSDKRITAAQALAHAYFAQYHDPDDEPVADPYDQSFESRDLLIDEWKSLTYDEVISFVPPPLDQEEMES
Lck, sequence (P06239 whole entry): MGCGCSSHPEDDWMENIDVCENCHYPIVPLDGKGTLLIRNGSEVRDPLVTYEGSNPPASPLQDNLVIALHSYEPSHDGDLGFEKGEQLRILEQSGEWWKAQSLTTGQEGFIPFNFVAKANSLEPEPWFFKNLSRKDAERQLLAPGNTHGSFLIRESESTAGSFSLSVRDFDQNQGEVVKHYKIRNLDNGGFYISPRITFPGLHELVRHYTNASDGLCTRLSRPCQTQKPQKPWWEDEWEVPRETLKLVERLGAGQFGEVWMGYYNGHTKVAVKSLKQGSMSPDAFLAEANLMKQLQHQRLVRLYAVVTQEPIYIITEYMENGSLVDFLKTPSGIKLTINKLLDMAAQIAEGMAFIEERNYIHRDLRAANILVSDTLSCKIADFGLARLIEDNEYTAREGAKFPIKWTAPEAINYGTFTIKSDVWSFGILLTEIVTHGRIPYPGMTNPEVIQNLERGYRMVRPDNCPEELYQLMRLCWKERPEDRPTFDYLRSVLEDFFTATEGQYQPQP
P38b MAPK, sequence (Q15759 whole entry): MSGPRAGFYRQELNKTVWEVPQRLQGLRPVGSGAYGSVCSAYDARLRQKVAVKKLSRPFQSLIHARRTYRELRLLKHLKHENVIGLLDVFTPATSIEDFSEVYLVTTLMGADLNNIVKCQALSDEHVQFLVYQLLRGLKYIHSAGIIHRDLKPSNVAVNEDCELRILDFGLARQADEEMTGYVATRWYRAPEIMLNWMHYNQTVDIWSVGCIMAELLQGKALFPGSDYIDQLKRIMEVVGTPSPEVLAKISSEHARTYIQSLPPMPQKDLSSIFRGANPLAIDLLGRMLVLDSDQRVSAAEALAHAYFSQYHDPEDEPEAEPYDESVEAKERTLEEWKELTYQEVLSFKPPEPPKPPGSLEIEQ
EPH A2, sequence (P29317 24-976): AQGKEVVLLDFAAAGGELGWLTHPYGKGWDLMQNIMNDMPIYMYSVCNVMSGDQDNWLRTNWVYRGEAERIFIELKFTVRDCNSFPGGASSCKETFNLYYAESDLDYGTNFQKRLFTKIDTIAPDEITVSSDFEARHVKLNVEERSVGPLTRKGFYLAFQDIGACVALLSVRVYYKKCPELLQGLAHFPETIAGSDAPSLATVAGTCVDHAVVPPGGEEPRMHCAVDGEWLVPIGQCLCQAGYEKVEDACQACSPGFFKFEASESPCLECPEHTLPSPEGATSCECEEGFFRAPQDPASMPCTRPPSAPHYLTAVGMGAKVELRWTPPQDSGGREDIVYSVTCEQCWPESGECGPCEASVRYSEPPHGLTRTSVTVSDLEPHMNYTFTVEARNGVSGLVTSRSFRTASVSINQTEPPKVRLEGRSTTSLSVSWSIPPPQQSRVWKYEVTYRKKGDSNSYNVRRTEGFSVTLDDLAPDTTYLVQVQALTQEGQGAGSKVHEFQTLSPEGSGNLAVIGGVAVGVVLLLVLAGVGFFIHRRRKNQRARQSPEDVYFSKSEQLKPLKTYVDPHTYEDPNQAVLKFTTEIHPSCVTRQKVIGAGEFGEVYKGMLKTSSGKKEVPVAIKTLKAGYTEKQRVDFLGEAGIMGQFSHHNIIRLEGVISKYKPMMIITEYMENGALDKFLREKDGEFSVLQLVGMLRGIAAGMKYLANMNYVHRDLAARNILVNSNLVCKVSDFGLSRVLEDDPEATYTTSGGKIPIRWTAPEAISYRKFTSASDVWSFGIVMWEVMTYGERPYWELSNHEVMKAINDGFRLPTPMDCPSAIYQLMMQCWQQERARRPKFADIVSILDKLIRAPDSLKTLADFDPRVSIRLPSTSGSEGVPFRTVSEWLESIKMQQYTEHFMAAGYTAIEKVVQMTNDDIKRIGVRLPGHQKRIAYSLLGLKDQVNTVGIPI
PRK2, sequence (Q16513 whole entry): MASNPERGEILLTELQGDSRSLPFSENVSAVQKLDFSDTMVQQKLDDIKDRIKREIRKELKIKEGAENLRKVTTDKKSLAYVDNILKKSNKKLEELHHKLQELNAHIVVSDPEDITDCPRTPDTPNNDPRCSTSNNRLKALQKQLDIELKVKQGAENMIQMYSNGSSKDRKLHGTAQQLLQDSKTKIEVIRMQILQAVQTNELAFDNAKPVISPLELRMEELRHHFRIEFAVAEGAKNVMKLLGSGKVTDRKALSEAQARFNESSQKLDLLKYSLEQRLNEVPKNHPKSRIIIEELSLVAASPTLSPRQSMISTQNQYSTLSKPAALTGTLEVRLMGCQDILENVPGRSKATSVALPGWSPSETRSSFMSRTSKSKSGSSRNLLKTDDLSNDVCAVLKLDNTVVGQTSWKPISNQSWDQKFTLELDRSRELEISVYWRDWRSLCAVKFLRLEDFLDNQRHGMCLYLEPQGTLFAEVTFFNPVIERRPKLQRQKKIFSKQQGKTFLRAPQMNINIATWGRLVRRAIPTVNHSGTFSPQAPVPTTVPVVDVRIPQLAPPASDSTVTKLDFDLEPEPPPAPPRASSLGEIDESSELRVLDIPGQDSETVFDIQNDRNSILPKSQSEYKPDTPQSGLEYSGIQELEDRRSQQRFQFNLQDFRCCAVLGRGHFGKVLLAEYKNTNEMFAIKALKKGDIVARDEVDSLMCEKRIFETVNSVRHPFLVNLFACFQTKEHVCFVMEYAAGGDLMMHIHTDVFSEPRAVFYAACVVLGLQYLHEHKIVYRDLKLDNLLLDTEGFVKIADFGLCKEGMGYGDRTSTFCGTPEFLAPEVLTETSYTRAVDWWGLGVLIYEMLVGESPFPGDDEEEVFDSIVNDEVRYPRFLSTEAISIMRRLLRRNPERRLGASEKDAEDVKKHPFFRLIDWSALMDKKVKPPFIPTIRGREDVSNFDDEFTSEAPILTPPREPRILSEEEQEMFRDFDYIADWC

Compound	remaining activity at 10 µM (p38s MAPK)	remaining activity at 10 µM (p38a MAPK)	remaining activity at 10 µM (RSK1)	remaining activity at 10 µM (DYRK1A)	remaining activity at 10 µM (PKC zeta)	remaining activity at 10 µM (ROCK 2)	remaining activity at 10 µM (P38b MAPK)	remaining activity at 10 µM (TBK1 (DU12569))	remaining activity at 10 µM (Lck)	remaining activity at 10 µM (EPH A2)	remaining activity at 10 µM (PRK2)	remaining activity at 10 µM (TBK1)	remaining activity at 10 µM (CSK)	remaining activity at 10 µM (PAK4)	remaining activity at 10 µM (YES1)	remaining activity at 10 µM (SYK)	remaining activity at 10 µM (PAK5)
CC(c1ccccc1)n1c(=O)[nH]c2ncc(-c3ccc(F)cc3)nc21 (centres unmarked) [Compound 1]	108%	88%	96%	79%	94%	105%	84%	95%	90%	105%	111%	95%	100%	101%	94%	97%	84%
O=c1[nH]c2ncc(-c3ccc(F)cc3)nc2n1CC1CC1 [Compound 10]	91%	87%	85%	113%	90%	78%	101%	86%	99%	96%	99%	95%	93%	106%	96%	98%	95%
O=c1[nH]c2ncc(-c3ccc(F)cc3)nc2n1C1CCCCC1 [Compound 12, 1-Cyclohexyl-6-(4-fluorophenyl)-1H-imidazo[4,5-b]pyrazin-2(3H)-one]	76%	86%	89%	93%	90%	84%	122%	90%	105%	97%	112%	92%	90%	103%	96%	100%	100%
C[C@H](c1ccccc1)n1c(=O)[nH]c2ncc(-c3ccccc3)nc21 [Compound 14, (R)-6-Phenyl-1-(1-phenylethyl)-1H-imidazo[4,5-b]pyrazin-2(3H)-one]	77%	88%	89%	85%	88%	85%	95%	78%	89%	89%	97%	100%	77%	86%	71%	84%	80%
